According to ChEMBL document CHEMBL1123596, “5-fluoro- and 8-fluorotrimetoquinol: selective beta 2-adrenoceptor agonists” (J Med Chem, 1987):
Structures can show the parent of a compound that is named as a salt.

Experiments:
[1] = Acid dissociation constant was determined; format: ADME
[2] = biological target: Beta-1 adrenergic receptor (Cavia porcellus) (UniProt B0FL73)
[3] = biological target: Beta-1 adrenergic receptor (Cavia porcellus) (UniProt B0FL73); remark: listed apart in the source
[4] = biological target: Beta-2 adrenergic receptor (Cavia porcellus) (UniProt Q8K4Z4); settings: Trachea
Sequence of Beta-2 adrenergic receptor (Cavia porcellus) (Q8K4Z4 whole entry, looked up): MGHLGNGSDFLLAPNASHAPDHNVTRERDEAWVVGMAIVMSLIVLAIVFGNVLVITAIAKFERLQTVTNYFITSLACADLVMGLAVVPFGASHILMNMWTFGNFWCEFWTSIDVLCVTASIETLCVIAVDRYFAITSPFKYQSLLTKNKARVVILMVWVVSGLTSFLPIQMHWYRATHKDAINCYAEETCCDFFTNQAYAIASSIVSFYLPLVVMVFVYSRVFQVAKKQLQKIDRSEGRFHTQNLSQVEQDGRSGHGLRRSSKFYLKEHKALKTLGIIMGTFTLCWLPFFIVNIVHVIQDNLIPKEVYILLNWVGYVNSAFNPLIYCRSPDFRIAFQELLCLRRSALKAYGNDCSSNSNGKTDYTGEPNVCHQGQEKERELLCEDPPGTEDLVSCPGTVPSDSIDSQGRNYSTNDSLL

Sequence of Beta-1 adrenergic receptor (Cavia porcellus) (B0FL73 1-467): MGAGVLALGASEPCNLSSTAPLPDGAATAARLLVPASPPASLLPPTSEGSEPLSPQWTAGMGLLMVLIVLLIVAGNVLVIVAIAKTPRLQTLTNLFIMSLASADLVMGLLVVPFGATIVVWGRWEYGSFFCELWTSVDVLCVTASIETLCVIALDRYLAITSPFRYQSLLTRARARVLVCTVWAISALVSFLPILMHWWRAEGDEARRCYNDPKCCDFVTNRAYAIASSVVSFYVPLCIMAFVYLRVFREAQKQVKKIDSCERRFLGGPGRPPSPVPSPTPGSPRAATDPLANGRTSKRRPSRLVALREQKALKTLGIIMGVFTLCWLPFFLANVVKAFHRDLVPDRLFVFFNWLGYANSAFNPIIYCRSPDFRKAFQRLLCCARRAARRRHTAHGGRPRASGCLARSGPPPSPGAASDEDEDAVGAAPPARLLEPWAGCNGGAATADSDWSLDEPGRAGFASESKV

pKa [1] | pD2 [2] | IAR [3] | IAR [4] | SMILES
7.86 |  |  |  | COc1cc(CC2NCCc3cc(O)c(O)c(F)c32)cc(OC)c1OC (stereo not drawn)
8.77 | 7.52 | 1 | 0.95 | COc1cc(CC2NCCc3cc(O)c(O)cc32)cc(OC)c1OC (stereo not drawn) [TRETOQUINOL HYDROCHLORIDE]
8.11 |  | 0.96 | 0.95 | COc1cc(CC2NCCc3c2cc(O)c(O)c3F)cc(OC)c1OC (stereo not drawn)
